Measured values published in PMC4104309, “Estradiol Binds to Insulin and Insulin Receptor Decreasing Insulin Binding in vitro” (Frontiers in Endocrinology, 2014).
Several values for one entry are separate records, joined by “and”; a condition that tells them apart may be missing. Equal values may be shown once. Where a name gives a salt, the structure may show the parent alone. Read-outs that look alike come from different tables or passages of the source.

Legend:
[1] = molecular target: recombinant human insulin (Humulin) (Homo sapiens, UniProt P01308); assay: UV spectroscopy binding of sex hormones to recombinant human insulin (Humulin); settings: for Binding to INS (in words): UV spectroscopic studies, discussion summary
[2] = molecular target: IR α 392–404 peptide of the human insulin receptor (Homo sapiens, UniProt P06213); assay: UV spectroscopy binding to insulin receptor peptide IR α 392–404
[3] = molecular target: IR α 91–103 peptide of the human insulin receptor (Homo sapiens, UniProt P06213); assay: UV spectroscopy binding to insulin receptor peptide IR α 91–103
[4] = molecular target: IR α 453–464 peptide of the human insulin receptor (Homo sapiens, UniProt P06213); assay: UV spectroscopy binding to insulin receptor peptide IR α 453–464
[5] = molecular target: oxidized insulin B chain (Insulin beta chain) (Bos taurus, UniProt P01317); assay: UV spectroscopy binding to oxidized insulin B chain; settings: read-out: Binding constant to individual oxidized INS B chain
Description: (§1) Additions were made serially.

[6] = tested on: Human recombinant INS; assay: Capillary electrophoresis: E2 in solution with and without insulin; settings: mean ± SD of the five EI/E ratios (10, 15, 20, 25, 30 kV)
[7] = molecular target: IR β 897–916 peptide of the human insulin receptor (Homo sapiens, UniProt P06213); assay: UV spectroscopy binding to insulin receptor peptide IR β 897–916
[8] = tested on: insulin receptor (IR) isolated from rat liver; assay: Enzyme-linked INS binding assay: effect of E2 on INS–HRP binding to IR
[9] = molecular target: Glucagon (Homo sapiens, UniProt P01275); assay: UV spectroscopy binding to glucagon (control)
[10] = molecular target: IR α 223–234 peptide of the human insulin receptor (Homo sapiens, UniProt P06213); assay: UV spectroscopy binding to insulin receptor peptide IR α 223–234
[11] = Concentration of E2 in E2-saturated buffer with INS–HRP or IR, by capillary electrophoresis; format: physicochemical; settings: crystals in buffer, at least 48 h room temperature; CE read-out
[12] = molecular target: human INS-like growth factor receptor (IGFR) (Homo sapiens, UniProt P08069); assay: UV spectroscopy (serial addition) binding of estradiol to IGFR; settings: human recombinant IGFR, biphasic
Method: Rat IR membrane preparation (I-9266) (IR) and human INS-like growth factor receptor (IGFR) (I-4657) were obtained from Sigma-Aldrich. The rat IR was a partially purified preparation in residual membrane and contained 250 units of activity as measured by its ability to catalyze the incorporation of 1 pmol per min of phosphate from γ-^32P-ATP into poly(Glu, Tyr), 4:1, at 30°C. The IGFR was recombinant, at least 95% pure by SDS-PAGE, and capable of binding INS-like growth factor. Both receptor preparations, in sum, retained activity.
as §1
This serial addition method was also used to determine the binding of estradiol to IR and IGFR.

[13] = molecular target: oxidized insulin A chain (Insulin alpha chain) (Bos taurus, UniProt P01317); assay: UV spectroscopy binding to oxidized insulin A chain
[14] = molecular target: IR α 233–248 peptide of the human insulin receptor (Homo sapiens, UniProt P06213); assay: UV spectroscopy binding to insulin receptor peptide IR α 233–248
[15] = molecular target: IR α 105–118 peptide of the human insulin receptor (Homo sapiens, UniProt P06213); assay: UV spectroscopy binding to insulin receptor peptide IR α 105–118
[16] = molecular target: IR α 284–300 peptide of the human insulin receptor (Homo sapiens, UniProt P06213); assay: UV spectroscopy binding to insulin receptor peptide IR α 284–300
[17] = tested on: INS binding; settings: 10^−8 M 17β-estradiol in the culture medium; ref Hilf et al. ([80]); cited from earlier work
[18] = molecular target: T1, IR α 424–441 peptide of the human insulin receptor (Homo sapiens, UniProt P06213); assay: UV spectroscopy binding to insulin receptor peptide IR α 424–441
T1 construct: IR α 424–441; made in house; host or cells: chemical peptide synthesis (Michigan State University facility)
Description: Humulin R was obtained from Lilly.

[19] = tested on: INS binding; settings: 1 mg dose of E2, within 24 h; ref Hilf et al. ([80]); cited from earlier work
[20] = molecular target: IR α 91–103 (human)
[21] = molecular target: IR α 223–234 (human)
[22] = molecular target: IR α 233–248 (human)
[23] = molecular target: IR α 392–404 (human)
[24] = molecular target: IR α 424–441 (human)
[25] = UV spectroscopy, peptide 100 nM in pH 7.4 phosphate buffer, 30 min room temperature, duplicates averaged
[26] = Binding constant to recombinant human INS, UV spectroscopy

Chain of IR β 897–916 peptide of the human insulin receptor (P06213 897-916 limits assumed): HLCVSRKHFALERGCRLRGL
Chain of recombinant human insulin (Humulin) (P01308 with tags, fused parts or gaps): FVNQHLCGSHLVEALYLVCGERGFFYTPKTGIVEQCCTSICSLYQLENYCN
Chain of recombinant human insulin (Humulin) (P01308 with tags, fused parts or gaps): as above
Chain of human INS-like growth factor receptor (IGFR) (P08069 with tags, fused parts or gaps): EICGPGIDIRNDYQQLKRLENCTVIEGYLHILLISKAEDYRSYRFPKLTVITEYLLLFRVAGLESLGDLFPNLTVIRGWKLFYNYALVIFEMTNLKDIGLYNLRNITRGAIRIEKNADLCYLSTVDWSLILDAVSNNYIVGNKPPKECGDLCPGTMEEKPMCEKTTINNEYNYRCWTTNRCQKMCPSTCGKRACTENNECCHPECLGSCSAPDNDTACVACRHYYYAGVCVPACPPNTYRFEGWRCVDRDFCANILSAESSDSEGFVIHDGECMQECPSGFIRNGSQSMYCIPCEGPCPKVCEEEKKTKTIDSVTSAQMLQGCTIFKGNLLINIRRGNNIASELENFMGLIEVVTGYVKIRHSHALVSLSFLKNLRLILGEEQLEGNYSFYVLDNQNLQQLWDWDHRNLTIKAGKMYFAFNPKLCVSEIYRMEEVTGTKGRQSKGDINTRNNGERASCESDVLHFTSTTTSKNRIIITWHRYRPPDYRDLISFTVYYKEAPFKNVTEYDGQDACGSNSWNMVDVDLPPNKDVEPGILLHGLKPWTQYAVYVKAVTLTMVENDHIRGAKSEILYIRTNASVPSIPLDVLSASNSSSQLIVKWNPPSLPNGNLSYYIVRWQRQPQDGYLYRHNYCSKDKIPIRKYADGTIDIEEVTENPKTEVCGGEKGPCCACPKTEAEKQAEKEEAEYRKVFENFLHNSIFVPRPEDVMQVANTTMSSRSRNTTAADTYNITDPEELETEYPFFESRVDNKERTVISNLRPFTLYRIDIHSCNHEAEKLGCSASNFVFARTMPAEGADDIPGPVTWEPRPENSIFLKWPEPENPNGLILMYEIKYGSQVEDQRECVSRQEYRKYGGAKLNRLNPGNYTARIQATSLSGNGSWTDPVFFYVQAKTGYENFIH
Chain of oxidized insulin A chain (Insulin alpha chain) (P01317 85-105): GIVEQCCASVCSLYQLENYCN
Chain of oxidized insulin B chain (Insulin beta chain) (P01317 25-54): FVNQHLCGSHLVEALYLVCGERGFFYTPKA
Chain of Glucagon (P01275 53-81): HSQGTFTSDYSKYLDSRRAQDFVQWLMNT

In the case of `C[C@]12CC[C@@H]3c4ccc(O)cc4CC[C@H]3[C@@H]1CC[C@H]2O` [17α-Estradiol], the Kd [1] is reported as 10 µM and the “Binding to INS (in words), serial additions” value ([1]; UV spectroscopy, serial additions, even at 1 μM (Figure 2)) is reported as “does not bind significantly”.
`C[C@]12CC[C@@H]3c4ccc(O)cc4CC[C@H]3[C@@H]1CC[C@@H]2O` [17β-Estradiol (E2), 17β-Estradiol] gave a Kd [2] of over 500 µM, a Kd [3] of 120 µM and a Kd [4] of over 500 µM. For the same compound, the Kd [5] was 150 µM, the “EI/E ratio, mean ± SD” value [6] was 3.96 ± 0.45 and the Kd [1] was 0.012 µM. For the same compound, the Kd ([1]; Binding constant (Kd) to INS, high affinity binding, UV spectroscopy) was ~0.012 µM and 0.012 µM, the Kd ([1]; read-out: Binding constant to INS, low affinity binding, UV spectroscopy, biphasic binding) was 65 µM and the Kd [7] was 0.78 µM. For the same compound, the “Shift of INS–HRP/IR binding curve to the right” value ([8]; E2 incubated with either INS–HRP or the IR alone, E2 initially 200 nM, about 22 nM at curve mid-point, duplicates averaged) was “half”, the “Shift of INS–HRP/IR binding curve to the right” value ([8]; both the IR and INS–HRP exposed to E2, E2 about 22 nM at curve mid-point) was 0.8 log units and the “Binding to glucagon (in words)” value [9] was “does not bind with measurable affinity”. For the same compound, the Kd [10] was over 500 µM, the “Concentration of E2 in E2-saturated phosphate buffer in the presence of INS or IR” value [11] was “ca. 60 ng/ml” and the Kd ([12]; read-out: Binding to IGFR, high affinity binding) was about 0.1 µM. The Kd ([12]; read-out: Kd to IGFR, lower affinity binding) was over 10 µM, the “Binding to the insulin A chain (in words), serial additions” value ([13]; UV serial addition, 1000 times the concentration of E2 used in Figure 2 (Figure 3)) was “no binding was apparent” and the Kd ([13]; read-out: Binding constant to individual oxidized INS A chain, UV spectroscopy) was 220 µM. The Kd [14] was over 500 µM, the Kd [15] was 280 µM and the Kd [16] was 0.9 µM. For the same compound, the “Decrease of INS binding in cell culture” value [17] was ~ 20%, the Kd [18, 25] was over 500 µM and the “Decrease of INS binding in rats” value [19] was at most 50%.
`C[C@]12CCC(=O)C=C1CC[C@@H]1[C@@H]2CC[C@]2(C)C(=O)CC[C@@H]12` [Andro-stenedione, 4-andro-stenedione] gave a Kd [2] of over 500 µM, a Kd [3] of over 500 µM and a Kd [4] of over 500 µM. The Kd [1] was 13.5 µM, the Kd [7] was over 500 µM and the Kd [10] was over 500 µM. For the same compound, the Kd [14] was over 500 µM, the Kd [15] was over 500 µM and the Kd [16] was over 500 µM. For the same compound, the Kd [18] was over 500 µM.
For `CC(C)CCC[C@@H](C)[C@H]1CC[C@H]2[C@@H]3CC=C4C[C@@H](O)CC[C@]4(C)[C@H]3CC[C@]12C` [Cholesterol], the Kd [2] was over 500 µM, the Kd [3] was over 500 µM and the Kd [4] was over 500 µM. The Kd [1] was over 500 µM, the Kd [7] was over 500 µM and the Kd [10] was over 500 µM. It also gave a Kd [14] of over 500 µM, a Kd [15] of over 500 µM and a Kd [16] of over 500 µM.
Compound `C[C@]12C[C@H](O)[C@H]3[C@@H](CCC4=CC(=O)CC[C@@]43C)[C@@H]1CC[C@@H]2C(=O)CO` [Corticosterone] has a Kd [1] of 21.1 µM.
`C[C@]12CC[C@@H]3c4ccc(O)cc4CC[C@H]3[C@@H]1C[C@@H](O)[C@@H]2O` [Estriol] showed a Kd [2] of over 500 µM, a Kd [3] of over 500 µM and a Kd [4] of 390 µM. For the same compound, the Kd [1] was over 500 µM, the Kd [1, 26] was over 500 µM and the Kd [7] was over 500 µM. For the same compound, the Kd [10] was over 500 µM, the Kd [14] was over 500 µM and the Kd [15] was over 500 µM. It also gave a Kd [16] of over 500 µM and a Kd [18, 25] of 380 µM.
For `C[C@]12CC[C@@H]3c4ccc(O)cc4CC[C@H]3[C@@H]1CCC2=O` [Estrone], the Kd [2] was over 500 µM, the Kd [3] was over 500 µM and the Kd [4] was over 500 µM. The Kd [1] was 1.25 µM, the Kd [7] was over 500 µM and the Kd [10] was over 500 µM. It also gave a Kd [14] of over 500 µM, a Kd [15] of over 500 µM and a Kd [16] of over 500 µM. For the same compound, the Kd [18, 25] was over 500 µM.
With `O=c1c(-c2ccc(O)cc2)coc2cc(O)cc(O)c12` [Genistein] the Kd [1] was over 500 µM and the “Binding to INS (in words)” value [1] was “negligible binding”.
Work on `C[C@]12CCC(=O)C=C1CC[C@@H]1[C@@H]2[C@@H](O)C[C@@]2(C)[C@H]1CC[C@]2(O)C(=O)CO` [Hydrocortisone] yielded a Kd [1] of 63.5 µM.
`CC(=O)[C@H]1CC[C@H]2[C@@H]3CC=C4C[C@@H](O)CC[C@]4(C)[C@H]3CC[C@]12C` [Pregnenolone, 5-Pregnen-3β-ol-20-one] gave a Kd [18, 25] of over 500 µM.
`CC(=O)[C@H]1CC[C@H]2[C@@H]3CCC4=CC(=O)CC[C@]4(C)[C@H]3CC[C@]12C` [Progesterone] showed a Kd [2] of over 500 µM, a Kd [3] of over 500 µM and a Kd [4] of over 500 µM. For the same compound, the Kd [1] was over 500 µM, the Kd [7] was over 500 µM and the Kd [10] was over 500 µM. The Kd [14] was over 500 µM, the Kd [15] was over 500 µM and the Kd [16] was over 500 µM.
In the case of `O=C(c1ccc(OCCN2CCCCC2)cc1)c1c(-c2ccc(O)cc2)sc2cc(O)ccc12` [Raloxifene, Raloxifene HCl], the Kd [1] is reported as 130 µM, the Kd [1, 26] is reported as 130 µM and the “Binding to INS (in words)” value [1] is reported as “negligible binding”.
For `CC/C(=C(\c1ccccc1)c1ccc(OCCN(C)C)cc1)c1ccccc1` [Tamoxifen, Tamoxifen citrate salt], the Kd [1] was over 500 µM and the “Binding to INS (in words)” value [1] was “negligible binding”.
“insulin conjugated to horse-radish peroxidase (ligand)” gave a Kd [20] of 0.07 µM, a Kd [21] of over 500 µM and a Kd [22] of 0.008 µM. For the same compound, the Kd [23] was 0.3 µM and the Kd [24] was over 500 µM.
